Test results from patent US12459951B2, “Compounds that interact with RAS superfamily proteins for treatment of cancers, inflammatory diseases, rasopathies, and fibrotic disease” (SHY Therapeutics, LLC, priority 2022, dated 2025).

Tests used:
JNK phosphorylation = assay: JNK Activation Assay (western blot), Panc-1; format: cell-based, human; conditions: at 10 μM, Panc-1 pancreatic cancer cell line; starred symbols = activation
Description: Protocol for JNK Activation Assay
This assay is referred to as the “JNK Activation Assay” throughout this application.
Cell lines: Human tumor-derived pancreatic cancer cell line Panc-1 (expressing KRas […] mutant) was purchased from American Type Culture Collection and grown in complete DMEM-High Glucose medium, supplemented with penicillin (100 U/mL), streptomycin (100 μg/mL), and 10% heat-inactivated FBS at 37° C. in a humidified incubator with 5% CO2.
Method 1: Cells were plated at 350000 cells/well density in a 12-well plate, allowed 3 hours to adhere to the plate, then starved in the appropriate medium in the presence of 0.5% FBS overnight. The small molecules to be tested were added to the cells in the final concentration of 10 μM in the presence of 0.3% DMSO for 6 hours incubation at 37° C. For IC50 value determination, serial dilutions of compounds were added to cells under the same conditions. Next, cells were stimulated with 1.5 ng/ml EGF for 15 minutes then cells were lysed with lysis buffer containing 1% Triton X-100, EDTA, and Halt™ Protease & Phosphatase Inhibitor Cocktail (Thermo Scientific). Protein concentration was assessed by BCA protein assay (Thermo Scientific). Phosphorylation level of JNK was determined by western blot.
Method 2: Cells were plated at 350000 cells/well density in a 12-well plate in the presence of 10% FBS. The next day small molecules to be tested were added to the cells in the final concentration of 10 μM in the presence of 0.3% DMSO for 6 hours incubation at 37° C. For IC50 value determination, serial dilutions of compounds were added to cells under the same conditions. Next, cells were lysed with lysis buffer containing 1% Triton X-100, EDTA, and Halt™ Protease & Phosphatase Inhibitor Cocktail (Thermo Scientific). Protein concentration was assessed by BCA protein assay (Thermo Scientific). Phosphorylation level of JNK was determined by western blot.
Western blot protocol: Equal amounts of protein (15-50 μg) were separated by SDS-PAGE and transferred to nitrocellulose membranes (Invitrogen by Thermo Fisher Scientific). The membrane was stained with Ponceau S Stain (Boston BioProducts) to verify uniform protein loading. Membranes were blocked with 10% milk and phosphorylation levels of JNK were assessed by incubating overnight at 4° C. with the antibody Phospho-SAPK/JNK (Thr183/Tyr185), from Cell Signaling Technology. Then the membranes were incubated with HRP-conjugated secondary antibody (Jackson Immunoresearch, West Grove, PA). Bands were incubated in Amersham ECL Prime Western Blotting Detection Reagent (GE Healthcare) and visualized using the ChemiDoc MP imaging system (Bio-Rad).

[1] = test system: A549 (expressing KRas G12S mutant); assay: Proliferation Assay (Cell Viability Assay); format: cell-based; conditions: Homo sapiens, A549, NSCLC
Description: (§1) Cell lines: Human tumor-derived cell lines were purchased from American Type Culture Collection. Human tumor-derived pancreatic cancer cell line MiaPaca-2 (expressing KRAS G12C mutant) and Panc-1 (expressing KRas G12D mutant), and Human non-small cell lung cancer (NSCLC) cell line A549 (expressing KRas G12S mutant) were grown in complete DMEM-High Glucose medium. Human colon cancer cell line SW-620 (expressing KRas G12V mutant) was grown in RPMI 1640 medium. All cell lines were supplemented with penicillin (100 U/mL), streptomycin (100 μg/mL), and 10% heat-inactivated FBS at 37° C. in a humidified incubator with 5% CO2.
(§2) Method: Cells were plated at 2000 to 5000 cells/well density in 96-wells plate and cultured overnight. Small molecules to be tested were added to the cells in the final concentration of 10 μM in the presence of 0.3% DMSO and 10% FBS and incubated for 2-4 days at 37° C. in a humidified incubator with 5% CO2. For IC50 value determination, serial dilutions of compounds were added to cells under the same conditions.
(§3) Assay: At the end of the incubation period, cell viability was determined using the CellTiter 96® Aqueous One Solution Cell Proliferation Assay according to manufacturer specifications (Promega, Madison, WI). The percentage of small molecules inhibition of cellular proliferation was calculated from raw data.
(§4) Cell lines: these Human tumor-derived cell lines were purchased from American Type Culture Collection. Human tumor-derived pancreatic cancer cell line MiaPaca-2 (expressing KRAS G12C mutant) and Panc-1 (expressing KRas G12D mutant), and Human non-small cell lung cancer (NSCLC) cell line A549 (expressing KRas G12S mutant), and Human melanoma cell line A375 (wild type Kras) were grown in complete DMEM-High Glucose medium. Human tumor-derived pancreatic cancer cell lines SU86.86 (expressing KRas G12D mutant), BxPC3 (expressing wild type K-Ras), and Human non-small cell lung cancer (NSCLC) cell lines NCI-H441 (expressing KRas G12S mutant), NCI-H1975 (expressing wild type KRas), NCI-H358 (expressing KRas G12C mutant), NCI-H1299 (expressing NRas Q61H mutant), and Human colon cancer cell line SW-620 (expressing KRas G12V mutant), Human triple negative breast cancer cell line HCC-1806 (expressing wild type KRas), and Human tumor-derived multiple myeloma cell line MM.1R (expressing wild type KRAS), were grown in RPMI 1640 medium. Human tumor-derived breast cancer cell line BT-549 (expressing wild type KRAS) was grown in RPMI 1640 medium in the presence of 11.8U insulin. Human tumor-derived pancreatic cancer cell line HPAF-II (expressing KRas G12D mutant), Human triple negative breast cancer cell line BT-20 (expressing wild type KRas), and Human colon cancer cell line LS123 (expressing KRas G12S mutant), were grown in EMEM medium. Human tumor-derived pancreatic cancer cell line CF-PAC1 (expressing KRas G12V mutant) was frown in IMDM medium, and Human colon cancer cell line HT29 (expressing wild type KRas) was grown in McCoy's 5A medium. The colon cancer cell line GP2d (expressing KRas G12D mutant) was purchased from MilliporeSigma and grown in DMEM-High Glucose medium. All cell lines were supplemented with penicillin (100 U/mL), streptomycin (100 μg/mL), and 10% heat-inactivated FBS at 37° C. in a humidified incubator with 5% CO2.
(§5) Method: Cells were plated at 2000 to 5000 cells/well density in 96-wells plate and cultured overnight. Small molecules that were tested were added to the cells in the final concentration of 10 μM in the presence of 0.3% DMSO and 10% FBS, and incubated for 2-4 days at 37° C. in a humidified incubator with 5% CO2. For IC50 value determination, serial dilutions of compounds were added to cells under the same conditions.

[2] = test system: Panc-1 (expressing KRas G12D mutant); assay: Proliferation Assay (Cell Viability Assay); format: cell-based; conditions: Homo sapiens, Panc1, pancreatic
Description: as §1, §2, §3, §4, §5

[3] = test system: SW-620 (expressing KRas G12V mutant); assay: Proliferation Assay (Cell Viability Assay); format: cell-based; conditions: Homo sapiens, SW-620, colon
Description: as §1, §2, §3, §4, §5

active/cleaved caspase 9 = assay: Cell-based caspase activation assay (western blot); set-up: species or system human

COc1cc(Nc2nc(-c3nccn3C)nn3cc(-c4ccn(C(C)C)n4)c(C)c23)ncn1 [Compound 6, 6-(1-Isopropyl-1H-pyrazol-3-yl)-N-(6-methoxypyrimidin-4-yl)-5-methyl-2-(1-methyl-1H-imidazol-2-yl)pyrrolo[2,1-f][1,2,4]triazin-4-amine]
% inh of JNK in Panc-1 (JNK phosphorylation): H* (H* ≥ 100% activation) | IC50 [1]: 510 to 1000 nM | IC50 [2]: < 150 nM | IC50 [3]: 150 to 500 nM

CO[C@H]1CC[C@@H](Nc2nc(-c3ccccn3)nn3cc(-c4ccn(C(C)C)n4)c(C)c23)C1 (racemic) [Compound 9, rac 6-(1-Isopropyl-1H-pyrazol-3-yl)-N-((1R,3S)-3-methoxycyclopentyl)-5-methyl-2-(pyridin-2-yl)pyrrolo[2,1-f][1,2,4]triazin-4-amine]
% inh of JNK in Panc-1 (JNK phosphorylation): F* (F* = 31-74% activation)

Cc1c(-c2ccn(C(C)C)n2)cn2nc(-c3nccn3C)nc(Nc3nccn3C)c12 [Compound 93, 6-(1-Isopropyl-1H-pyrazol-3-yl)-5-methyl-N,2-bis(1-methyl-1H-imidazol-2-yl)pyrrolo[2,1-f][1,2,4]triazin-4-amine]
% inh of JNK in Panc-1 (JNK phosphorylation): H* (H* ≥ 100% activation)

Cc1c(-c2ccn(C)n2)cn2nc(-c3nccn3C)nc(Nc3cc4n(n3)CCO4)c12 [Compound 124, N-(5-Methyl-2-(1-methyl-1H-imidazol-2-yl)-6-(1-methyl-1H-pyrazol-3-yl)pyrrolo[2,1-f][1,2,4]triazin-4-yl)-2,3-dihydropyrazolo[5,1-b]oxazol-6-amine]
Caspase 9 activation (active/cleaved caspase 9; HCC1806, after 48 hours): yes | Caspase 9 activation (active/cleaved caspase 9; NCI-H358, after 48 hours): yes

Cc1c(-c2ccn(C(C)C)n2)cn2nc(-c3ccccn3)nc(O)c12 [Compound 8, 6-(1-Isopropyl-1H-pyrazol-3-yl)-5-methyl-2-(pyridin-2-yl)pyrrolo[2,1-f][1,2,4]triazin-4-ol]
% inh of JNK in Panc-1 (JNK phosphorylation): E* (E* = 1-30% activation)
